{
  "source": "patent US20090305993A1",
  "about": "“METHODS AND COMPOSITION FOR THE TREATMENT OF GASTROINTESTINAL DISORDERS” (IRONWOOD PHARMACEUTICALS, INC., priority 2006, published 2009)",
  "key": {"intestinal GC-C receptor": {"biological_target": "T1, intestinal GC-C receptor (Homo sapiens, UniProt P25092)", "T1 construct": "monolayers of T84 cells in 24-well plates; host or cells: T84 human colon carcinoma cells", "T1 sequence (P25092 24-1073)": "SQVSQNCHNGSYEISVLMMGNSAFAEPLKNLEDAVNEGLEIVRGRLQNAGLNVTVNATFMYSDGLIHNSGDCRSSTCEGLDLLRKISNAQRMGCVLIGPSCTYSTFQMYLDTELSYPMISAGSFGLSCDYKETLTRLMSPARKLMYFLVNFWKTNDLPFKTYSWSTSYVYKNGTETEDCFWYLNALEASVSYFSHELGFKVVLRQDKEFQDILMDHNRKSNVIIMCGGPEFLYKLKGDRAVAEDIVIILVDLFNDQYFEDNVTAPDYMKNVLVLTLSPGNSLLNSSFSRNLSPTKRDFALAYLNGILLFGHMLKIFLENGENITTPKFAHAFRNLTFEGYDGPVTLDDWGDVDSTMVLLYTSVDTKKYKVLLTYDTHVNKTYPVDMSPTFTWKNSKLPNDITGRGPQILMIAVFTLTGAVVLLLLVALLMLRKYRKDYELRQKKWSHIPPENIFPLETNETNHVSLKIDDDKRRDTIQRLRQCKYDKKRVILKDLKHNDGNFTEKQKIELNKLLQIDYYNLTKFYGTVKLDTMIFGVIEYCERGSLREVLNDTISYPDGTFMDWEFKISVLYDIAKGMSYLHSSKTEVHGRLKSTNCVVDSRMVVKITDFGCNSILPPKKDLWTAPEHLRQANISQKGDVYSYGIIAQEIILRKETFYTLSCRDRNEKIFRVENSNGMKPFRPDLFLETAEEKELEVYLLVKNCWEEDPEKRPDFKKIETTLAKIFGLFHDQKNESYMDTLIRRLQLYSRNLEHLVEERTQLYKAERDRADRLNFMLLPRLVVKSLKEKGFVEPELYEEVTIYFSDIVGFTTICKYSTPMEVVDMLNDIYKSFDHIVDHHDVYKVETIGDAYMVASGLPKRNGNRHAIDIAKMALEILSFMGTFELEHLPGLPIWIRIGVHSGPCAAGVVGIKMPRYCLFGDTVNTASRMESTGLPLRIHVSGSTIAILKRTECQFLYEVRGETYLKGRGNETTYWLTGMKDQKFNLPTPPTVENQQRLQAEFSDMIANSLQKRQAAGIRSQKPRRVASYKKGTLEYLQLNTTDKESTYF", "assay": "intestinal GC-C receptor activity assay (cyclic GMP EIA) in T84 cells", "assay_type": "cell-based", "conditions": "chemically synthesized peptides, FIGS. 2a and 2b", "description": "The ability of SEQ ID NO:5, SEQ ID NO:4, SEQ ID NO:3, and SEQ ID NO:6 to activate the intestinal GC-C receptor was assessed in an assay employing the T84 human colon carcinoma cell line (American Type Culture Collection (Bethesda, Md.)). For the assays cells were grown to confluency in 24-well culture plates with a 1:1 mixture of Ham's F12 medium and Dulbecco's modified Eagle's medium (DMEM), supplemented with 5% fetal calf serum and were used at between passages 54 and 60.\nBriefly, monolayers of T84 cells in 24-well plates were washed twice with 1 ml/well DMEM, then incubated at 37° C. for 10 min with 0.45 ml DMEM containing 1 mM isobutylmethylxanthine (IBMX), a cyclic nucleotide phosphodiesterase inhibitor. Test peptides (50 μl) were then added and incubated for 30 minutes at 37° C. The media was aspirated and the reaction was then terminated by the addition of ice cold 0.5 ml of 0.1N HCl. The samples were held on ice for 20 minutes and then evaporated to dryness using a heat gun or vacuum centrifugation."}, "[1]": {"biological_target": "T2, GC-C receptors on the cell surface of human colonic cells (T84 cells) (Homo sapiens, UniProt P25092)", "T2 construct": "host or cells: T84 cells (whole cells in suspension)", "T2 sequence (P25092 24-1073)": "as above", "assay": "competitive radioligand-binding assay on T84 cells", "description": "The radiolabeled tracer used in these experiments was ^125I-SEQ ID NO:7. To determine binding constants, competitive inhibition of binding was used. T84 cells were cultured in T-150 plastic flasks in DMEM and Ham's F-12 medium containing 5% fetal bovine serum. Monolayers at 60-70% confluency (approximately 10^7 cells) were collected by gentle scraping followed by centrifugation, and washed twice in 50 mL of phosphate-buffered saline (PBS). The cells were resuspended in 1 mL DMEM containing 20 mM […] (Hepes), pH 7.0 and 0.5% bovine serum albumin (BSA). T84 cells were incubated with a constant amount of ^125I-SEQ ID NO:7 containing various concentrations of cold competitor. Free ^125I-SEQ ID NO:7 was separated from bound tracer by rapid suction filtration. The binding reactions were carried out in 1.5 mL microfuge tubes in 0.24 mL of DMEM/20 mM Hepes pH 7.0/0.5% BSA containing: 2.5×10^5 T84 cells (0.25 mg protein), 200,000 cpm ^125I-SEQ ID NO:7 (41 fmol, […]), and 0.01 to 1,000 nM competitor. Binding assays at pH 5.0 were done in DMEM/20 mM 2-(N-morpholino) ethanesulfonic acid (Mes), pH 5.0. Binding assays in pH 8.0 were done in DMEM/20 mM Hepes/50 mM sodium bicarbonate pH 8.0. One sample contained no competitor (B0) and another contained no cells. After incubation at 37° C. for 1 h, the reaction mixtures were applied to Whatman GF/B glass-fiber filters by suction filtration. The filters were then rinsed with 10 mL ice-cold PBS buffer, inserted into plastic tubes, and added to 2 mL scintillation fluid. Radioactivity was measured in a LS 6500 liquid scintillation counter (Beckman-Coulter). The percent bound in each sample is calculated by the equation:\n% B/B0=(sample cpm−no cells cpm)×100/(B0 cpm−no cells cpm)\nCompetitive radioligand-binding curves were generated using the Graphpad PRISM™ computer program. […] The apparent dissociation equilibrium constant (Ki) for each competitor was obtained from the IC50 values and the previously reported estimate of the dissociation constant for the radioligand, Kd≈15 nM (Hamra et al. 1997 PNAS 2705-10) and the method of Cheng and Prusoff 1973 Biochem Pharmacol 22:3099-108. Using a two site model, high and low affinity-binding sites were identified on T84 cells (Ki1 and Ki2) for all the test agents. At pH 7.0. for SEQ ID NO:3 Ki1 ranged from 0.89-1.23 nM and Ki2 ranged from 88.9-156 nM."}, "female Wistar rats": {"test_system": "female Wistar rats", "assay": "partial restraint stress-induced hyperalgesia model", "assay_type": "in vivo, rat", "conditions": "oral 0.3 and 3.0 μg/kg, distending pressure 15 mm Hg, p<0.0001, FIG. 7b", "description": "Five groups of female Wistar rats (weighing 200-250 g each), were surgically prepared for electromyography as described (Morteau et al. 1994 Dig Dis Sci 39:1239-48) and were used to evaluate the effects of SEQ ID NO:3 on colorectal sensitivity and compliance after a 2 hour partial restraint stress session. Partial restraint stress (PRS), a relatively mild stress, was induced as previously described (Morteau et al. 1994 Dig Dis Sci 39:1239-48). Female rats were lightly anesthetized with diethyl ether and their shoulders, upper forelimbs and thoracic trunk were wrapped in a confining harness of paper tape to restrict, but not prevent body movements. Control sham-stress animals were anesthetized but not wrapped. […] Electrical activity was recorded with an electroencephalograph (Mini VIII, Alvar, Paris, France) using a short time constant (0.03 sec.) to remove low-frequency signals (<3 Hz) and a paper speed of 3.6 cm/minute. […] Colonic pressure and balloon volume were continuously monitored on a potentiometric recorder (L6514, Linseis, Selb, Germany) with a paper speed of 1.0 cm/minute. The number of spike bursts, corresponding to abdominal contractions, was evaluated per 5-minute period. Colorectal volumes were determined as the maximal volume obtained for each stage of distension using the potentiometric recorder. […] The values were expressed as mean±SEM."}, "[2]": {"biological_target": "intestinal epithelial cells from wild-type and GC-C KO mice (Mus musculus, UniProt Q3UWA6)", "sequence (Q3UWA6 20-1072)": "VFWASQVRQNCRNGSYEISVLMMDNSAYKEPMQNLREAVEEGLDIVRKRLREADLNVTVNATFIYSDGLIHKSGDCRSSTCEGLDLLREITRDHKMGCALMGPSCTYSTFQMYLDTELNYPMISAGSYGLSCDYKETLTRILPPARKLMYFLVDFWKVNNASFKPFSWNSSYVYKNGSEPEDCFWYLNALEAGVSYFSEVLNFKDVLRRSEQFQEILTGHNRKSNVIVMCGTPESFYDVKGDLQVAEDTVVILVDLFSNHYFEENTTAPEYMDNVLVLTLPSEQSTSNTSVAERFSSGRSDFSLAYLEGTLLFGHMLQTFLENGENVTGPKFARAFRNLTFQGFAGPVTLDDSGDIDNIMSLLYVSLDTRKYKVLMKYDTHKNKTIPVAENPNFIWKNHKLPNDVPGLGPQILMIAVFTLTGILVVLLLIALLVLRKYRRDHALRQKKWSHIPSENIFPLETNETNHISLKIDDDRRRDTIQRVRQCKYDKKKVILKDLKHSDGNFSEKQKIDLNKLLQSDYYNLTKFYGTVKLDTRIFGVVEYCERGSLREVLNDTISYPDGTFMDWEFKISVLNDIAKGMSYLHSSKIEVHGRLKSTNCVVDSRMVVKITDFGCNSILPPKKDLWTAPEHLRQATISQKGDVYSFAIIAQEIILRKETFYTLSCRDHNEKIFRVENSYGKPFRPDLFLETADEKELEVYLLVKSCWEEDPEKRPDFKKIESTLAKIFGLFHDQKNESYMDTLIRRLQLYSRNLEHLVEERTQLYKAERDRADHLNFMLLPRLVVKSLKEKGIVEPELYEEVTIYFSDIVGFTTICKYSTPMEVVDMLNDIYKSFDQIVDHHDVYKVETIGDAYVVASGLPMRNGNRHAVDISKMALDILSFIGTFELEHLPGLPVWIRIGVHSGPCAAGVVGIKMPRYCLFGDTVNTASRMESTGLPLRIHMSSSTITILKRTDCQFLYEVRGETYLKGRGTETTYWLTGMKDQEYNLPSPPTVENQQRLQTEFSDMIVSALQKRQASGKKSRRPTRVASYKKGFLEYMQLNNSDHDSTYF", "conditions": "125I-SEQ ID NO:3 alone or with excess unlabeled SEQ ID NO:3, FIG. 9b", "protocol": "Mouse intestinal epithelial cells were prepared identical to that above as for rat intestinal epithelial cells except the cells were homogenized with an Omni homogenizer for 20 seconds on the maximum setting to make a suspension of cells. A competition binding assay was performed identical to that described above between ^125I labeled SEQ ID NO:3 and unlabeled SEQ ID NO:3 (competitor)."}},
  "note": "Where two headings read alike, the source gives them in different places. Where a SMILES comes first, the peptide text is derived from it. Bridges are numbered along the chain shown (N, C = ends).",
  "data": [
    {"smiles": "C[C@@H]1NC(=O)[C@@H]2CCCN2C(=O)[C@H](CC(N)=O)NC(=O)[C@@H]2CSSC[C@H](N)C(=O)N[C@H]3CSSC[C@H](NC1=O)C(=O)N[C@@H]([C@@H](C)O)C(=O)NCC(=O)N[C@H](C(=O)N[C@@H](Cc1ccc(O)cc1)C(=O)O)CSSC[C@H](NC(=O)[C@H](Cc1ccc(O)cc1)NC(=O)[C@H](CCC(=O)O)NC3=O)C(=O)N2", "note": "[SEQ ID NO:3] (H-CCEYCCNPACTGCY-OH; disulfide 1-6, 2-10, 5-13; N-terminus and C-terminus assumed)", "values": [
      {"measurement": "activity in GC-C receptor activity assay", "setting": "intestinal GC-C receptor", "result": "activity comparable to SEQ ID NO:4"},
      {"measurement": "effect of pH on binding to the high affinity site, Ki1", "setting": "[1]; pH 5, 7 and 8", "result": "not affected by pH"},
      {"measurement": "Ki", "setting": "[1]; pH 5.0, T84 cells, read-out: Ki1 (high affinity site)", "result": 1.38, "unit": "nM"},
      {"measurement": "Ki", "setting": "[1]; pH 5.0, T84 cells, read-out: Ki2 (low affinity site)", "result": 17, "unit": "nM"},
      {"measurement": "Ki", "setting": "[1]; pH 8.0, T84 cells, read-out: Ki1 (high affinity site)", "result": 0.6, "unit": "nM"},
      {"measurement": "Ki", "setting": "[1]; pH 8.0, T84 cells, read-out: Ki2 (low affinity site)", "result": 94.4, "unit": "nM"},
      {"measurement": "response to CRD after partial restraint stress", "setting": "female Wistar rats", "result": "reduced the response to CRD after PRS"},
      {"measurement": "binding to intestinal epithelial cells, GC-C KO compared to wild-type mice", "setting": "[2]", "result": "reduction in SEQ ID NO:3 binding"}
    ]}
  ]
}
